Experimental data published in patent US20260159525A1, “TRICYCLIC HETEROCYCLES” (Merck Patent GmbH, priority 2021, published 2026).

Key:
Assay type in all cases: cell-based
SW620 Yap KO cells = assay: Viability assay in SW620 Yap KO (Yap independent) cells, CyQUANT; conditions: Homo sapiens, SW-620, SW620 YAP and TAZ knocked out (YAP independent), 96 hour incubation, n.d. (x) = not detectable below threshold x
Method: (§1) Viability Assay in NCI-H226 (Yap-Dependent) and SW620 Yap KO (Yap Independent) Cells
(§2) The ability of YAP-TEAD inhibitors to inhibit tumor cell growth was evaluated using two different cell lines: NCI-H226, which is a YAP dependent cell line, and SW620 cells, where YAP and TAZ were knocked out using CRISPR to generate a YAP independent cell line.
(§3) For the assay, cells were treated in duplicates with the test compounds in a 10-point dose, 1:3 dilution steps, with the top concentration starting at 30 μM (final concentration in assay). After a 96 hour incubation at 37° C., 95% rH, and 5% CO2, a cell-permeant DNA-binding dye that stains only healthy cells (CyQUANT®, Promega) was added to the cells, allowing the quantification of cell viability.
(§4) Cell Media: The NCI-H226 cells were cultured in the following media: RPMI 1640, +10% FBS, +1× GlutaMAX, +10 mM HEPES, +0.5% Pen/Strep. The SW620-KO cells were cultured in the following media: DMEM/F-12, +10% FBS, +1× GlutaMAX, +10 mM HEPES, +0.5% Pen/Strep.
(§5) Reagents: The reagents used are listed below:
(§6) Cell culture: The cells were examined using an inverted microscope to check for health, cell density, etc. To dissociate adherent cells, the monolayer of cells was washed once with pre-warmed PBS. After removing the PBS, 3 ml pre-warmed Accutase was added to a F75 flask, dispersed evenly and the flask was allowed to sit in incubator for ˜4-5 minutes.
(§7) When a single cell suspension was obtained, 7 ml of prewarmed growth media was added and resuspended with the cells. The cell suspension was transferred to a sterile 15 ml conical centrifuge tube, and spun for 5 min at 300×g, RT. The supernatant was discarded and the pellet was resuspended in 10 ml of pre-warmed growth media.
(§8) The total cell count was determined, and 20 μl of the desired cell number was added to each well of a 384 well plate using a Multidrop Combi. The plates were then incubated for 24 hours at 37° C., 95% rH, and 5% CO2.
(§9) Compound treatment: 24 hours after seeding, the cells were treated with compounds.
(§10) A 1:333 dilution of compounds, diluted in DMSO, was made to get a final concentration of 0.3% DMSO per well. To transfer the compounds to the assay plate, 120 nl was shot from Labcyte low dead volume plates to the cell plates containing 20 μl media/well with the ECHO 555 liquid handling system. After treatment, the cells were fed with 20 μl fresh pre-warmed assay media using a Multidrop combi.
(§11) The assay plates were then incubated for 96 h at 37° C., 95% rH, and 5% CO2.
(§12) 96 h after treatment 30 μl of CyQuant® reagent was added to the assay plates using a Multidrop combi in the dark. The plates were then incubated for 1 hour at 37° C., 95% rH and 5% CO2. Thereafter, the assay plates were removed from the incubator and allowed to equilibrate to RT for 30 min in the dark without lid. Finally, they were measured using an EnVision microplate reader with a FITC bottom read program.

YAP-TEAD interaction = assay: SK-HEP-1 reporter assay (8x TEAD responsive elements driving NanoLuc luciferase); conditions: Homo sapiens, SK-HEP1, SK-HEP-1 cells, 24 hour incubation
Procedure, shortened: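 SK-HEP-1 cells carrying a stably integrated 8× TEAD-element NanoLuc reporter, seeded 24 h before dosing, were treated in duplicate with a 10-point dose series (top 30 μM final, 0.3% DMSO) for 24 h at 37°C, 5% CO2. Luciferase activity read by NanoGlo luminescence; IC50 derived from it.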

NCI-H226 cells = assay: Viability assay in NCI-H226 (Yap-dependent) cells, CyQUANT; conditions: Homo sapiens, NCI-H226 YAP dependent cell line, 96 hour incubation, group symbols
Method: as §1, §2, §3, §4, §5, §6, §7, §8, §9, §10, §11, §12

[1] = number, or n.d. (x) = not detectable below threshold x

| Compound | IC50 (SW620 Yap KO cells) | IC50 (YAP-TEAD interaction; group symbols) | IC50 (NCI-H226 cells) | IC50 (YAP-TEAD interaction; [1]) |
| --- | --- | --- | --- | --- |
| Cn1cc2c3cc(C(=O)O)sc3n([C@H]3CC[C@H](C(F)(F)F)CC3)c2n1 [Compound 52, 4-methyl-7-[(1r,4r)-4-(trifluoromethyl)cyclohexyl]-9-thia-4,5,7-triazatricyclo[6.3.0.0^2,6]undeca-1(8),2,5,10-tetraene-10-carboxylic acid] | > 30000 nM | 10 to 100 nM | 1 to 100 nM |  |
| Cn1cc2c3cc(C(=O)NCCN4CCOCC4)sc3n(-c3ccc(C(F)(F)F)cc3)c2n1 [Compound 65, 4-methyl-N-[2-(morpholin-4-yl)ethyl]-7-[4-(trifluoromethyl)phenyl]-9-thia-4,5,7-triazatricyclo[6.3.0.0^2,6]undeca-1(8),2,5,10-tetraene-10-carboxamide] | > 3000 nM |  | 100 to 1000 nM | > 300 nM |
| Cn1cc2c3cc(C(=O)NCc4ccccn4)sc3n(-c3ccc(C(F)(F)F)cc3)c2n1 [Compound 66, 4-methyl-N-[(pyridin-2-yl)methyl]-7-[4-(trifluoromethyl)phenyl]-9-thia-4,5,7-triazatricyclo[6.3.0.0^2,6]undeca-1(8),2,5,10-tetraene-10-carboxamide] | > 3000 nM |  | 1 to 100 nM | > 9500 nM |
| Cn1cc2c3cc(C(=O)N4CC[C@@H](O)C4)sc3n(-c3ccc(C(F)(F)F)cc3)c2n1 [Compound 67, (3R)-1-{4-methyl-7-[4-(trifluoromethyl)phenyl]-9-thia-4,5,7-triazatricyclo[6.3.0.0^2,6]undeca-1(8),2,5,10-tetraene-10-carbonyl}pyrrolidin-3-ol] | > 3000 nM |  | 100 to 1000 nM | > 9500 nM |
| Cn1cc2c3cc(C(=O)N4CC[C@H](O)C4)sc3n(-c3ccc(C(F)(F)F)cc3)c2n1 [Compound 69, (3S)-1-{4-methyl-7-[4-(trifluoromethyl)phenyl]-9-thia-4,5,7-triazatricyclo[6.3.0.0^2,6]undeca-1(8),2,5,10-tetraene-10-carbonyl}pyrrolidin-3-ol] | > 3200 nM |  | 1 to 100 nM | > 30000 nM |
| Cn1cc2c3cc(-c4noc(=O)[nH]4)sc3n(-c3ccc(C(F)(F)F)cc3)c2n1 [Compound 80, 3-{4-methyl-7-[4-(trifluoromethyl)phenyl]-9-thia-4,5,7-triazatricyclo[6.3.0.0^2,6]undeca-1(8),2,5,10-tetraen-10-yl}-4,5-dihydro-1,2,4-oxadiazol-5-one] | > 30000 nM |  | 100 to 1000 nM | > 30000 nM |

Continued, values first:

| IC50 (SW620 Yap KO cells) | IC50 (YAP-TEAD interaction; group symbols) | IC50 (NCI-H226 cells) | IC50 (YAP-TEAD interaction; [1]) | Compound |
| --- | --- | --- | --- | --- |
| > 3000 nM |  | 1 to 100 nM | > 950 nM | Cn1cc2c3cc(C(=O)NCCO)sc3n(-c3ccc(C(F)(F)F)cc3)c2n1 [Compound 64, N-(2-hydroxyethyl)-4-methyl-7-[4-(trifluoromethyl)phenyl]-9-thia-4,5,7-triazatricyclo[6.3.0.0^2,6]undeca-1(8),2,5,10-tetraene-10-carboxamide] |
| > 3000 nM |  | 1 to 100 nM | > 950 nM | C[C@@H](CO)NC(=O)c1cc2c3cn(C)nc3n(-c3ccc(C(F)(F)F)cc3)c2s1 [Compound 68, N-[(2S)-1-hydroxypropan-2-yl]-4-methyl-7-[4-(trifluoromethyl)phenyl]-9-thia-4,5,7-triazatricyclo[6.3.0.0^2,6]undeca-1(8),2,5,10-tetraene-10-carboxamide] |
| > 30000 nM |  | 1 to 100 nM | > 30000 nM | Cn1cc2c3cc(C(=O)NC4(CO)CC4)sc3n(-c3ccc(C(F)(F)F)cc3)c2n1 [Compound 91, N-[1-(hydroxymethyl)cyclopropyl]-4-methyl-7-[4-(trifluoromethyl)phenyl]-9-thia-4,5,7-triazatricyclo[6.3.0.0^2,6]undeca-1(8),2,5,10-tetraene-10-carboxamide] |
| > 3000 nM |  | 100 to 1000 nM | > 30000 nM | CC[C@@H](CO)NC(=O)c1cc2c3cn(C)nc3n(-c3ccc(C(F)(F)F)cc3)c2s1 [Compound 92, N-[(2S)-1-hydroxybutan-2-yl]-4-methyl-7-[4-(trifluoromethyl)phenyl]-9-thia-4,5,7-triazatricyclo[6.3.0.0^2,6]undeca-1(8),2,5,10-tetraene-10-carboxamide] |
